{"source": "ChEMBL document CHEMBL5625242", "about": "“Discovery of brain permeable 2-Azabicyclo[2.2.2]octane sulfonamides as a novel class of presenilin-1 selective γ-secretase inhibitors” (Eur J Med Chem, 2023)", "key": {"[1]": {"assay": "Inhibition of human PSEN1/APH1A expressed in MEF cells with Psen1/2 double knockout/Aph1ABC triple knockout by ELISA", "type": "cell-based"}, "[2]": {"assay": "Inhibition of human PSEN1/APH1B expressed in MEF cells with Psen1/2 double knockout/Aph1ABC triple knockout by ELISA", "type": "cell-based"}, "[3]": {"assay": "Inhibition of human PSEN2/APH1A expressed in MEF cells with Psen1/2 double knockout/Aph1ABC triple knockout by ELISA", "type": "cell-based"}, "[4]": {"assay": "Inhibition of human PSEN2/APH1B expressed in MEF cells with Psen1/2 double knockout/Aph1ABC triple knockout by ELISA", "type": "cell-based"}, "Cytochrome P450 2D6": {"target": "Cytochrome P450 2D6 (Homo sapiens, UniProt P10635)", "sequence (P10635 whole entry)": "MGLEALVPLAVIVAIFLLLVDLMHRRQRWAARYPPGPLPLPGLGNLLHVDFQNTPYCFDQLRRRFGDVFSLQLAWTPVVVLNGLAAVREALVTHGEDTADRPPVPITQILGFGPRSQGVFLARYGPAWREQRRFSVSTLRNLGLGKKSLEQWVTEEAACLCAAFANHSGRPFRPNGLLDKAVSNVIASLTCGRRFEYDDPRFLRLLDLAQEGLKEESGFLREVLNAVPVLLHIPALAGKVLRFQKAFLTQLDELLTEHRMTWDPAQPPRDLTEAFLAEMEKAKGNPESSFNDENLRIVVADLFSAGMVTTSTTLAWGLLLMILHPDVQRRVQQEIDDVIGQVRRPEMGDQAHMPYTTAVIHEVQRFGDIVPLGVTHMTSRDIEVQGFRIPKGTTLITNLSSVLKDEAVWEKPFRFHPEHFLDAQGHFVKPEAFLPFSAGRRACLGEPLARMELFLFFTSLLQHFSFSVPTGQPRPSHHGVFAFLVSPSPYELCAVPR", "assay": "Inhibition of human CYP2D6 using dextrometorphan as substrate by fluorescence based assay", "type": "ADME"}, "Cytochrome P450 3A4": {"target": "Cytochrome P450 3A4 (Homo sapiens, UniProt P08684)", "sequence (P08684 whole entry)": "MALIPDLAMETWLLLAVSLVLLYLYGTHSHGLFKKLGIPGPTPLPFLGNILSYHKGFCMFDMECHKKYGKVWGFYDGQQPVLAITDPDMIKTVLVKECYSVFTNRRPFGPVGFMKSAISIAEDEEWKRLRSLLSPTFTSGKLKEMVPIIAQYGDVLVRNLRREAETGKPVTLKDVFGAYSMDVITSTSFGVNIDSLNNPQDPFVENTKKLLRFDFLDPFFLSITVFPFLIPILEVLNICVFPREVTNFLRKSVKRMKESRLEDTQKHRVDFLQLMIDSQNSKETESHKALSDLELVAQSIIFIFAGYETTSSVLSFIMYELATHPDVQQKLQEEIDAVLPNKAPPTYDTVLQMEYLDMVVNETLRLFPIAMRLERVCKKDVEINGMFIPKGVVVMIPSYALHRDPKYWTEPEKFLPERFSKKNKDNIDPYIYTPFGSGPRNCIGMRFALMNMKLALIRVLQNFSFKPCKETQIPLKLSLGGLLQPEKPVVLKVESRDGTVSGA", "assay": "Inhibition of human CYP3A4 using midazolam as substrate by fluorescence based assay", "type": "ADME"}, "Cytochrome P450 2C8": {"target": "T1, Cytochrome P450 2C8 (Homo sapiens, UniProt P10632)", "T1 sequence (P10632 whole entry)": "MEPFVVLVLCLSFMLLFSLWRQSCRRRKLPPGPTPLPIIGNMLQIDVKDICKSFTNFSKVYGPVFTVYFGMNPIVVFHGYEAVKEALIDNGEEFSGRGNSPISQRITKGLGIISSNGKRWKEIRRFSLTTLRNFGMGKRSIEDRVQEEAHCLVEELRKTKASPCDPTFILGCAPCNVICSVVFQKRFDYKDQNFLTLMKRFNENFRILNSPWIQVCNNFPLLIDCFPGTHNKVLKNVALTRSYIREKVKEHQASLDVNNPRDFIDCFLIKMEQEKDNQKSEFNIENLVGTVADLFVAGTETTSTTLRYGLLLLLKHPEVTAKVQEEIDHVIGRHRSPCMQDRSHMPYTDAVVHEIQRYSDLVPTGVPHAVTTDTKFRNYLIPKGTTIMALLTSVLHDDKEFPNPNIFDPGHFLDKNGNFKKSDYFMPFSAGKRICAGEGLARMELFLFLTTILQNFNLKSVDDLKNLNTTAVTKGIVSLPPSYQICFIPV", "assay": "Inhibition of human CYP2C8 using amodiaquine as substrate by fluorescence based assay", "type": "ADME"}, "Cytochrome P450 2C9": {"target": "Cytochrome P450 2C9 (Homo sapiens, UniProt P11712)", "sequence (P11712 whole entry)": "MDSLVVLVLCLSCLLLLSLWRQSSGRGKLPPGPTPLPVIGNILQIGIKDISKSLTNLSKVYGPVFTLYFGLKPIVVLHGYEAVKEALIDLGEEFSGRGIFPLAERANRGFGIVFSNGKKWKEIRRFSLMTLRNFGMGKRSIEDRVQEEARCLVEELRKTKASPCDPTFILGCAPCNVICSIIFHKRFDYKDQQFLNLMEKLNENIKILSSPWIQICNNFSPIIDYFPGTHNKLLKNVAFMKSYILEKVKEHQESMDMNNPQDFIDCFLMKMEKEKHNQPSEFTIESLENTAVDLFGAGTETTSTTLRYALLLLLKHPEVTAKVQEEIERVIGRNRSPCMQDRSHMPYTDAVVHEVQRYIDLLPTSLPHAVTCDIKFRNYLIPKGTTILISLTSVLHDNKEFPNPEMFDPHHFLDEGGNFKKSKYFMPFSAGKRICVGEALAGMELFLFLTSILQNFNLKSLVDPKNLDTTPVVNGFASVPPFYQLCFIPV", "assay": "Inhibition of human CYP2C9 using tolbutamide as substrate by fluorescence based assay", "type": "ADME"}, "Cytochrome P450 2C19": {"target": "Cytochrome P450 2C19 (Homo sapiens, UniProt P33261)", "sequence (P33261 whole entry)": "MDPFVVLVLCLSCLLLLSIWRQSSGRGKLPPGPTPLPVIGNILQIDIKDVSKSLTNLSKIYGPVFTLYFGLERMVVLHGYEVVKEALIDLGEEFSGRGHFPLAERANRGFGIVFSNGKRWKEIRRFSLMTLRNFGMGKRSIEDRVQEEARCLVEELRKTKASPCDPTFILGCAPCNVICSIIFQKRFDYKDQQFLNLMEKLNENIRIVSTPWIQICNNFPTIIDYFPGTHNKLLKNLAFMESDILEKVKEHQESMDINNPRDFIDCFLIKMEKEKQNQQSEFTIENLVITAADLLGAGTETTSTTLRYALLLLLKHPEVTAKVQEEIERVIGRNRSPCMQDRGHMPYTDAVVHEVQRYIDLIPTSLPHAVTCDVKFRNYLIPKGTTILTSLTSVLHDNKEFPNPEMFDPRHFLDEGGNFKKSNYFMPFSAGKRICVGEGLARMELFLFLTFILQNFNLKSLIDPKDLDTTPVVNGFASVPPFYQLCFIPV", "assay": "Inhibition of human CYP2C19 using S-mephenytoin as substrate by fluorescence based assay", "type": "ADME"}, "Cytochrome P450 1A2": {"target": "T2, Cytochrome P450 1A2 (Homo sapiens, UniProt P05177)", "T2 sequence (P05177 whole entry)": "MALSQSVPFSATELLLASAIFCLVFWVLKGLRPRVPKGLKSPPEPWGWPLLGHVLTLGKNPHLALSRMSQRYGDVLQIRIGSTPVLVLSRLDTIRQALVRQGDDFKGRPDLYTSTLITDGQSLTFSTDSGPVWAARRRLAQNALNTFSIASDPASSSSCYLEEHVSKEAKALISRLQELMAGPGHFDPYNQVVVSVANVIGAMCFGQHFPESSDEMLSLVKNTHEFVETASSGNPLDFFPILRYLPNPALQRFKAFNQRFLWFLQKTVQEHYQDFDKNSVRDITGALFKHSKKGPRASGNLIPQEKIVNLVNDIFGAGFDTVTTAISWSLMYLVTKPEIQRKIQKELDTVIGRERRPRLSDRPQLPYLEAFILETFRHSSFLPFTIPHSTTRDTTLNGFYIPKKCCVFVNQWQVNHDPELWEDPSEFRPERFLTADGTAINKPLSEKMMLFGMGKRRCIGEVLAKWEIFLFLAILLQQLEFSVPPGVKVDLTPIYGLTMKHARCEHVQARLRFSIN", "assay": "Inhibition of human CYP1A2 using phenacetin as substrate by fluorescence based assay", "type": "ADME"}, "[5]": {"assay": "Protein binding in mouse plasma assessed as free fraction at 5 uM incubated for 4.5 hrs by HPLC analysis", "type": "ADME, cell-free"}, "[6]": {"assay": "Free fraction in rat brain homogenate at 5 uM incubated for 5 hrs by HPLC-MS/MS analysis", "type": "ADME, tissue-based"}, "[7]": {"assay": "Kinetic solubility of compound at pH 2", "type": "physicochemical", "conditions": "buffer, read-out: Kinetic_solubility"}, "[8]": {"assay": "Kinetic solubility of compound at pH 4", "type": "physicochemical", "conditions": "buffer, read-out: Kinetic_solubility"}, "[9]": {"assay": "Kinetic solubility of compound at pH 7.4", "type": "physicochemical", "conditions": "buffer, read-out: Kinetic_solubility"}, "human MDR1 [10]": {"test_system": "human MDR1", "assay": "Apparent permeability across apical to basal side in MDCK cells transfected with human MDR1 at 5 uM by LC-MS/MS analysis", "type": "ADME, cell-based, Canis lupus familiaris", "conditions": "dog"}, "human MDR1 [11]": {"test_system": "human MDR1", "assay": "Efflux ratio of apparent permeability basal to apical side over apical to basal side in MDCK cells transfected with human MDR1 at 5 uM by LC-MS/MS analysis", "type": "ADME, cell-based, Canis lupus familiaris", "conditions": "dog"}, "[12]": {"target": "Voltage-gated inwardly rectifying potassium channel KCNH2 (Homo sapiens, UniProt Q12809)", "sequence (Q12809 whole entry)": "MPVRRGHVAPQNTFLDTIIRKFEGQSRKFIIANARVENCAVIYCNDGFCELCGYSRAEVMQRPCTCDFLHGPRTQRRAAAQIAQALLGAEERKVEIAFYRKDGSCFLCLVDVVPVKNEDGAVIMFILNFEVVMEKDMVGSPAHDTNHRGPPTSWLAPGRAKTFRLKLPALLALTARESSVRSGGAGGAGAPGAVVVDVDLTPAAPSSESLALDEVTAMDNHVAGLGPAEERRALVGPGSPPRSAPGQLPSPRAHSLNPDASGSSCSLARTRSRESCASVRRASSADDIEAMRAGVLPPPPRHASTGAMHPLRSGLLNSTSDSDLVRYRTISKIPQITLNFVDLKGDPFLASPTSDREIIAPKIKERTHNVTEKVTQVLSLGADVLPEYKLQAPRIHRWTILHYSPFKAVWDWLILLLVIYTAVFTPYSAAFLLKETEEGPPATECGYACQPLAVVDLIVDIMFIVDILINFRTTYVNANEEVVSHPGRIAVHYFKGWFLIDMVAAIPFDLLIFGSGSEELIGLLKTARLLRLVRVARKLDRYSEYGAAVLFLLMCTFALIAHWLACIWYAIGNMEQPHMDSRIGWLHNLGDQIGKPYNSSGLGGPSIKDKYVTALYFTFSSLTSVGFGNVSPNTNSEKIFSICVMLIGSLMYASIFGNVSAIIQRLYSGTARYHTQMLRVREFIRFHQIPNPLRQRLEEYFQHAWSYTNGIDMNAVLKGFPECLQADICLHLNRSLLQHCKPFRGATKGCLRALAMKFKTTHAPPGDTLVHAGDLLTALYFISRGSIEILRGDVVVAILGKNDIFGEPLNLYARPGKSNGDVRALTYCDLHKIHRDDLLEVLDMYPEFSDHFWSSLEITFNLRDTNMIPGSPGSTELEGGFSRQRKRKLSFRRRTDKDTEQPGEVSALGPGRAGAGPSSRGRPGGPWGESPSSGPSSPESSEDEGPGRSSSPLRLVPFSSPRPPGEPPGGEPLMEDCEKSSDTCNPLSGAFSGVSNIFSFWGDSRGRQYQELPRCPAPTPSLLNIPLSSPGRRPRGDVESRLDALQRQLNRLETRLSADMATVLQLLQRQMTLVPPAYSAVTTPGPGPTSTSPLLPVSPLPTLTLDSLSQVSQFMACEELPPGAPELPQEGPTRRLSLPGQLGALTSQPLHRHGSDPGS", "assay": "Inhibition of hERG", "type": "toxicity"}, "calcium channel": {"test_system": "calcium channel", "assay": "Inhibition of rat calcium channel", "type": "toxicity"}, "sodium channel": {"test_system": "sodium channel", "assay": "Inhibition of rat sodium channel", "type": "toxicity"}, "[13]": {"assay": "Drug concentration in Swiss mouse plasma at 2.5 mg/kg, iv measured at 5 mins post-dose", "type": "ADME, organism-based"}, "[14]": {"assay": "Drug concentration in Swiss mouse brain at 2.5 mg/kg, iv measured at 5 mins post-dose", "type": "ADME, organism-based", "conditions": "read-out: Ct"}, "[15]": {"assay": "Ratio of drug concentration in brain to plasma of Swiss mouse at 2.5 mg/kg, iv measured at 5 mins post-dose", "type": "ADME, organism-based", "conditions": "read-out: BPR"}, "[16]": {"assay": "Unbound drug concentration in Swiss mouse plasma at 2.5 mg/kg, iv measured at 5 mins post-dose", "type": "ADME, organism-based", "conditions": "in vivo"}, "[17]": {"assay": "Ratio of unbound drug concentration in brain to plasma in Swiss mouse at 2.5 mg/kg, iv measured at 5 mins post-dose", "type": "ADME, organism-based", "conditions": "read-out: K(p,uu,brain)"}, "[18]": {"assay": "Half life in CD-1 mouse at 30 mg/kg, po measured at 4 hrs post-dose", "type": "ADME, organism-based", "conditions": "in vivo"}, "[19]": {"assay": "Tmax in CD-1 mouse at 30 mg/kg, po measured at 4 hrs post-dose", "type": "ADME, organism-based", "conditions": "in vivo"}, "[20]": {"assay": "AUClast in CD-1 mouse at 30 mg/kg, po measured at 4 hrs post-dose", "type": "ADME, organism-based", "conditions": "in vivo"}, "[21]": {"assay": "AUC (0 to infinity) in CD-1 mouse at 30 mg/kg, po measured at 4 hrs post-dose", "type": "ADME, organism-based", "conditions": "in vivo"}, "[22]": {"assay": "Volume of distribution at steady state in CD-1 mouse at 30 mg/kg, po measured at 4 hrs post-dose", "type": "ADME, organism-based", "conditions": "in vivo"}, "[23]": {"assay": "MRT in CD-1 mouse at 30 mg/kg, po measured at 4 hrs post-dose", "type": "ADME, organism-based", "conditions": "in vivo"}}}
{"compound": "O=S(=O)(c1ccc(Cl)cc1)N1[C@H]2CC[C@@H]([C@H]1c1ccc(C(F)(F)F)cc1)[C@@H](O)C2", "values": [{"measurement": "IC50", "setting": "[1]", "value": 0.019, "unit": "µM"}, {"measurement": "IC50", "setting": "[2]", "value": 0.0055, "unit": "µM"}, {"measurement": "IC50", "setting": "[3]", "value": 1.95, "unit": "µM"}, {"measurement": "IC50", "setting": "[4]", "value": 2.14, "unit": "µM"}, {"measurement": "IC50", "setting": "Cytochrome P450 2D6", "value": "> 10", "unit": "µM"}, {"measurement": "IC50", "setting": "Cytochrome P450 3A4", "value": 3, "unit": "µM"}, {"measurement": "IC50", "setting": "Cytochrome P450 2C8", "value": "> 10", "unit": "µM"}, {"measurement": "IC50", "setting": "Cytochrome P450 2C9", "value": "> 10", "unit": "µM"}, {"measurement": "IC50", "setting": "Cytochrome P450 2C19", "value": "> 10", "unit": "µM"}, {"measurement": "IC50", "setting": "Cytochrome P450 1A2", "value": "> 10", "unit": "µM"}, {"measurement": "fraction unbound at 4.5 h, 5 µM", "setting": "[5]", "value": 0.00309}, {"measurement": "fraction unbound at 5 h, 5 µM", "setting": "[6]", "value": 0.00115}, {"measurement": "solubility kinetic", "setting": "[7]", "value": 13, "unit": "µM"}, {"measurement": "solubility kinetic", "setting": "[8]", "value": 12, "unit": "µM"}, {"measurement": "solubility kinetic", "setting": "[9]", "value": 18, "unit": "µM"}, {"measurement": "Papp A→B at 5 µM", "setting": "human MDR1 [10]", "value": 6.3, "unit": "×10⁻⁶ cm/s"}, {"measurement": "efflux ratio at 5 µM", "setting": "human MDR1 [11]", "value": 1.95}, {"measurement": "IC50", "setting": "[12]", "value": "> 10", "unit": "µM"}, {"measurement": "IC50", "setting": "calcium channel", "value": "> 10", "unit": "µM"}, {"measurement": "IC50", "setting": "sodium channel", "value": "> 10", "unit": "µM"}, {"measurement": "concentration at 5 min", "setting": "[13]", "value": 680, "unit": "ng/mL"}, {"measurement": "concentration at 5 min", "setting": "[14]", "value": 3620, "unit": "ng/g"}, {"measurement": "Kp at 5 min", "setting": "[15]", "value": 5.4}, {"measurement": "Cp(f)", "setting": "[16]", "value": 2.1, "unit": "ng/mL"}, {"measurement": "Kp uu at 5 min", "setting": "[17]", "value": 1.97}, {"measurement": "half-life", "setting": "[18]", "value": 28.9, "unit": "min"}, {"measurement": "Tmax", "setting": "[19]", "value": 120, "unit": "min"}, {"measurement": "AUC(0-t) at 4 h", "setting": "[20]", "value": 163, "unit": "ng·h/mL"}, {"measurement": "AUC", "setting": "[21]", "value": 174, "unit": "ng·h/mL"}, {"measurement": "Vdss", "setting": "[22]", "value": 3.43, "unit": "L/kg"}, {"measurement": "MRT", "setting": "[23]", "value": 27.2, "unit": "min"}]}
